Patent US20220168392A1 (priority 2019, published 2022)
Square brackets hold non-standard residues; d marks the D form. * marks the point of attachment. 2Nal = N[C@@H](Cc1ccc2ccccc2c1)C(=O)O; Propionyl = CCC(=O)*; Sar = CNCC(=O)O

Columns and labels:
[1] = test system: male BALB/c mice treated with carboplatin; test: Carboplatin induced thrombocytopenia, anemia, mortality and brain microangiopathic events in mice; assay type: in vivo, mouse
Description: Materials and Methods: Increasing doses of carboplatin (i.e., 60, 70, or 80 mg/kg, i.p.) were administered on 2 consecutive days (Day 1 and Day 0) to male BALB/c mice (N=3 per group). Approximately 1 hour after carboplatin treatment on Day 0, sets of mice were treated with vehicle or RWJ-800088 (100 μg/kg, i.v.).
On Day 15, surviving mice were euthanized and blood samples were collected for the assessment of platelet and red blood cell (RBC) parameters. The brains of the mice were also isolated and preserved in 10% buffered formalin for immunohistochemical staining using anti-fibrinogen antibodies. Control mice were processed in a similar manner.

[2] = test system: CD21F1 male mice exposed to TBI; test: Dose reduction factor (DRF) and long-term survival study after TBI; assay type: in vivo, mouse
Description: Methods: CD21F1 male mice were used in a DRF (dose reduction factor) study to determine LD50/30 for animals administered with RWJ-800088 or it's vehicle (saline). This included irradiating cohorts of 24 animals at various total body irradiation (TBI) doses (Saline: 7.5, 8.0, 8.5, 9.0, 9.5, and 10 Gy; RWJ-800088: 10.5, 11.0, 11.5, 11.75, 12, and 12.5 Gy). Following the 30 day survival study, surviving animals were monitored for up to 1 year with planned collection points at 6 months and 1 year.
RWJ-800088 administration timing and doses: RWJ-800088 was administered […] at a dose of 1 mg/kg 24 h prior to irradiation.

mouse bone marrow cells = test: Hematopoietic progenitor clonogenic (CFU) assay of bone marrow after 7 Gy TBI; assay type: in vivo
Description: Hematopoietic Progenitor Clonogenic Assay: Clonogenicity of mouse bone marrow cells was quantified in standard semisolid cultures using 1 mL of Methocult GF+ system for mouse cells (Stem Cell Technologies Inc., Vancouver, BC) according to the manufacturer's instructions. Briefly, colony forming units (CFU) were assayed on days 0 (2 h post-TBI), 1, 3, 7, 15, and 30 after 7 Gy exposure or unirradiated mice. Cells from three femurs from different animals were pooled, washed twice with IMDM and seeded at 1 to 5×10^4 cells per 35 mm cell culture dishes (BD Biosciences, San Jose, Calif.). Each sample was plated in duplicate to be scored 14 days after plating. Granulocyte-macrophage colony forming units (CFU-GM), granulocyte-erythrocyte-monocyte-[…] CFU (CFU-GEMM), colony-forming unit-erythroid (CFU-E) and erythroid burst-forming units (BFU-E) were identified and quantified following the manufacturer's instructions. Colonies were counted 14 days after plating using a Nikon TS100F microscope. Fifty or more cells were considered one colony. Data were expressed as mean f standard error of mean (SEM). Statistical significance was determined between irradiated vehicle treated and RWJ-800088-treated groups.

[3] = test system: CD2F1 mice exposed to TBI (7 Gy); test: Sternal bone marrow histopathology (cellularity, megakaryocytes) after 7 Gy TBI; assay type: in vivo, mouse; settings: day 7 post-TBI 7 Gy; 24 h pre-TBI administration
Description: Sternal histopathology: Following blood collection, animals were euthanized, and the sterna were collected on 0 (2 h post-TBI), 1, 3, 7, 15 and 30 days post-TBI. The sterna were fixed in a 20:1 volume of fixative (10^0/% buffered formalin) to tissue for at least 24 h and up to 7 days. Fixed sterna were decalcified for 3 h in 12-18% sodium EDTA (pH 7.4-7.5), and specimens were dehydrated using graded ethanol concentrations and embedded in paraffin. Longitudinal 5 μm sections were stained with regular hematoxylin and eosin (H&E) stain. A board-certified veterinary pathologist conducted blinded histopathological evaluation of these samples. The bone marrow was evaluated in situ within sternebrae and graded for total cellularity and megakaryocyte numbers averaged per 10 high power fields at 40× magnification using a BX41 Olympus microscope (Olympus Corporation, Minneapolis, Minn.). […]
Bone marrow cellularity and architecture of CD2F1 mice treated 24 h pre-TBI with vehicle or RWJ-800088 were evaluated by the AFRRI pathologist (FIG. 8). Bone marrow cellularity was determined by evaluating the amount of adipose (fat) tissue versus hematopoietic cells (minus, mature red blood cells) on one (10×) high power field (HPF). […]
Samples were collected on different days post-TBI up to day 30. […] Megakaryocytes were evaluated by averaging the number of cells per 10 (40×) high power fields (HPFs). […]

[4] = carboplatin 70 mg/kg, RWJ-800088 100 μg/kg i.v., Day 15
[5] = Group 7, 10.5 Gy, 1 mg/kg 24 h prior to irradiation
[6] = Group 9, 11.5 Gy, 1 mg/kg 24 h prior to irradiation
[7] = Group 12, 12.5 Gy, 1 mg/kg 24 h prior to irradiation

## methoxypolyethyleneglycol20000-propionyl-L-Isoleucyl-L-Glutamyl-Glycyl-L-Prolyl-L-Threonyl-L-Leucyl-L-Arginyl-L-Glutaminyl-L-2-Naphthylalanyl-L-Leucyl-L-Alanyl-L-Alanyl-L-Arginyl-Sarcosyl-Ne-(methoxypolyethyleneglycol20000-propionyl-L-Isoleucyl-L-Glutamyl-Glycyl-L-Prolyl-L-Threonyl-L-Leucyl-L-Arginyl-L-Glutaminyl-L-2-Naphthylalanyl-L-Leucyl-L-Alanyl-L-Alanyl-L-Arginyl-Sarcosyl-)-Lysinamide ({mPEG 20 kDa-Propionyl}-IEGPTLRQ[2Nal]LAAR[Sar]K-NH2; also: dimer: second identical mPEG-propionyl chain on Lys Nε of C-terminal lysinamide) [RWJ-800088]
[1]; Mice, carboplatin chemotherapy, whole wrapped cell: Protection against thrombocytopenia, anemia and vascular hemorrhage in the brain
  Effects: Protection against
[1]; [4]
  fibrinogen staining of brain sections (immunohistochemistry): appeared normal with the intensity of fibrinogen staining similar to vessels in the brains of control mice
  signs of hemorrhage or edema in brain: none of the brains isolated from mice co-treated with RWJ-800088 exhibited signs of hemorrhage or edema
[1]; carboplatin 60, 70 or 80 mg/kg i.p. on 2 consecutive days, RWJ-800088 100 μg/kg i.v. ~1 hour after carboplatin on Day 0
  platelet and RBC counts on Day 15: prevented the observed decreases in platelet and RBC counts
[1]; carboplatin 60-80 mg/kg i.p. x2 days, RWJ-800088 100 μg/kg i.v.
  mortality / euthanization: none of the mice treated with RWJ-800088 died or required euthanization
[2]; 1 mg/kg 24 h prior to irradiation, 95% CI 1.16-2.54
  DRF value: 1.42
[2]; 1 mg/kg 24 h prior to irradiation, LD50/30
  LD50 value (radiation dose) for RWJ-800088 treated animals: 12.64 Gy
[2]; [5]
  # Surviving (6 months): 10/10
  # Surviving (12 months): 5/5
  # Surviving (30 days): 24/24
[2]; [6]
  # Surviving (6 months): 10/10
  # Surviving (12 months): 5/5
  # Surviving (30 days): 22/24
[2]; [7]
  # Surviving (12 months): 0/3
  # Surviving (30 days): 11/24
[2]; Group 12, 12.5 Gy, two animals were added from 12 Gy
  # Surviving (6 months): 7/10
Mouse bone marrow cells; day 15 post-TBI 7 Gy, 24 h pre-TBI administration
  total number of colonies in the vehicle-treated group compared to the RWJ-800088 treated group: significantly lower
Mouse bone marrow cells; day 30 post-TBI 7 Gy
  GM, GEMM, BFU-E and CFU-E, vehicle-treated vs RWJ-800088 treated groups: significantly lower (p<0.0001)
[3]
  megakaryocytes counts in sternal bone marrow: significant recovery
